These are literature values, as cited in EP4454482A1, “PREPARATIONS COMPRISING OLEANOL GLYCOSIDES” (Analyticon Discovery GmbH, priority 2023, dated 2024).

Each structure is given as a SMILES string.

The conditions of this data set: water (20° dH) at 20 °C; solid active agent.

Consider `Nc1nc2c(ncn2COCCO)c(=O)[nH]1` [Acyclovir, 2-Amino-1,9-dihydro-9-((2-hydroxyethoxy)methyl)-6H-Purin-6-one], for which the solubility in water entry was “less than 5 g/L”.
